In PubChem BioAssay (NCI):
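These data come from cells grown in 96-well plates and exposed to compound for 48 hours at five concentrations. TGI marks complete inhibition of growth.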

Assays:
Test in all cases: DTP human tumour cell line panel, 48 h
COLO 205 colon = system: COLO 205 colon
UACC-62 melanoma = system: UACC-62 melanoma
NCI-H23 lung = system: NCI-H23 lung
K-562 leukemia = system: K-562 leukemia
786-0 renal = system: 786-0 renal
IGROV1 ovarian = system: IGROV1 ovarian
NCI-H460 lung = system: NCI-H460 lung
CAKI-1 renal = system: CAKI-1 renal
SN12C renal = system: SN12C renal
U251 CNS = system: U251 CNS
SF-295 CNS = system: SF-295 CNS

CCOC(=O)/C=C/[C@H](O)[C@@H](O)/C=C/C(=O)OCC
TGI (COLO 205 colon): > 100 µM | TGI (UACC-62 melanoma): 57.4 µM | TGI (NCI-H23 lung): > 100 µM | TGI (K-562 leukemia): 27.7 µM | TGI (786-0 renal): > 100 µM | TGI (IGROV1 ovarian): > 100 µM | TGI (NCI-H460 lung): 43 µM | TGI (CAKI-1 renal): 45.8 µM | TGI (SN12C renal): 85.2 µM | TGI (U251 CNS): > 100 µM | TGI (SF-295 CNS): > 100 µM

O=C(O)CNn1c(SCC(=O)O)nnc(/C=C/c2c(O)ccc3ccccc23)c1=O
TGI (COLO 205 colon): > 100 µM | TGI (UACC-62 melanoma): 74.4 µM | TGI (NCI-H23 lung): 52.6 µM | TGI (K-562 leukemia): 62.7 µM | TGI (786-0 renal): > 100 µM | TGI (IGROV1 ovarian): 0.962 µM | TGI (NCI-H460 lung): > 100 µM | TGI (CAKI-1 renal): > 100 µM | TGI (SN12C renal): > 100 µM | TGI (U251 CNS): > 100 µM | TGI (SF-295 CNS): > 100 µM

Cc1c(N/C=C(\C#N)C(=O)c2ccc(Cl)cc2)c(=O)n(-c2ccccc2)n1C
TGI (COLO 205 colon): > 100 µM | TGI (UACC-62 melanoma): > 100 µM | TGI (NCI-H23 lung): > 100 µM | TGI (K-562 leukemia): > 100 µM | TGI (786-0 renal): > 100 µM | TGI (IGROV1 ovarian): > 100 µM | TGI (NCI-H460 lung): > 100 µM | TGI (CAKI-1 renal): > 100 µM | TGI (SN12C renal): > 100 µM | TGI (U251 CNS): > 100 µM | TGI (SF-295 CNS): > 100 µM

O=C(NC(Nc1ccc(F)cc1)(C(F)(F)F)C(F)(F)F)C(C(F)(F)F)C(F)(F)F
TGI (COLO 205 colon): > 100 µM | TGI (UACC-62 melanoma): > 100 µM | TGI (NCI-H23 lung): > 100 µM | TGI (K-562 leukemia): > 100 µM | TGI (786-0 renal): > 100 µM | TGI (IGROV1 ovarian): > 51.5 µM | TGI (NCI-H460 lung): > 100 µM | TGI (CAKI-1 renal): > 100 µM | TGI (SN12C renal): > 100 µM | TGI (U251 CNS): > 100 µM | TGI (SF-295 CNS): > 100 µM

CC(C)(C)OC(=O)c1ccc(NCC2=CC(=O)C=CC2=O)cc1
TGI (COLO 205 colon): 7.21 µM | TGI (UACC-62 melanoma): 26 µM | TGI (NCI-H23 lung): 22.2 µM | TGI (K-562 leukemia): > 100 µM | TGI (786-0 renal): 22 µM | TGI (IGROV1 ovarian): 23.9 µM | TGI (NCI-H460 lung): > 59.5 µM | TGI (CAKI-1 renal): 3.39 µM | TGI (SN12C renal): 23.8 µM | TGI (U251 CNS): 27.1 µM | TGI (SF-295 CNS): 50.5 µM

[O-][N+]1=NC(c2ccccc2)=C1c1ccccc1
TGI (COLO 205 colon): > 50 µM | TGI (UACC-62 melanoma): > 50 µM | TGI (NCI-H23 lung): > 50 µM | TGI (K-562 leukemia): > 50 µM | TGI (786-0 renal): > 50 µM | TGI (IGROV1 ovarian): > 50 µM | TGI (NCI-H460 lung): > 50 µM | TGI (CAKI-1 renal): > 50 µM | TGI (SN12C renal): > 50 µM | TGI (U251 CNS): > 50 µM | TGI (SF-295 CNS): > 50 µM

CC1=CC(C)C(C)N(CCNS(=O)(=O)c2ccc(C)cc2)c2ccccc21 (stereo not given)
TGI (COLO 205 colon): 17.3 µM | TGI (UACC-62 melanoma): 17.2 µM | TGI (NCI-H23 lung): 26.9 µM | TGI (K-562 leukemia): 27.5 µM | TGI (786-0 renal): 20.8 µM | TGI (IGROV1 ovarian): 23.4 µM | TGI (NCI-H460 lung): 19.2 µM | TGI (CAKI-1 renal): > 31.6 µM | TGI (SN12C renal): 17.1 µM | TGI (U251 CNS): 31.7 µM | TGI (SF-295 CNS): 19.5 µM

CC(C)(C)c1cc(OCc2nnc3sc(=S)[nH]n23)c(Cl)cc1OCc1nnc2sc(=S)[nH]n12
TGI (COLO 205 colon): > 100 µM | TGI (UACC-62 melanoma): 32.6 µM | TGI (NCI-H23 lung): 95.5 µM | TGI (K-562 leukemia): > 100 µM | TGI (786-0 renal): 95 µM | TGI (IGROV1 ovarian): 66.4 µM | TGI (NCI-H460 lung): 81.8 µM | TGI (CAKI-1 renal): 80.5 µM | TGI (SN12C renal): > 100 µM | TGI (U251 CNS): 65.2 µM | TGI (SF-295 CNS): > 100 µM

COc1cc(Nc2nnc3n2S(=O)(=O)c2cc(C)c(Cl)cc2S3)cc(OC)c1
TGI (COLO 205 colon): > 100 µM | TGI (UACC-62 melanoma): 57.6 µM | TGI (NCI-H23 lung): 43.7 µM | TGI (K-562 leukemia): > 100 µM | TGI (786-0 renal): 20.5 µM | TGI (IGROV1 ovarian): 6.26 µM | TGI (NCI-H460 lung): > 100 µM | TGI (CAKI-1 renal): 79 µM | TGI (SN12C renal): > 100 µM | TGI (U251 CNS): 29.2 µM | TGI (SF-295 CNS): 68.7 µM

O=c1c2cc(Cl)ccc2[nH]c2cc(O)cc(O)c12
TGI (COLO 205 colon): > 10 µM | TGI (UACC-62 melanoma): > 10 µM | TGI (NCI-H23 lung): > 10 µM | TGI (K-562 leukemia): > 10 µM | TGI (786-0 renal): > 10 µM | TGI (IGROV1 ovarian): > 10 µM | TGI (NCI-H460 lung): > 10 µM | TGI (CAKI-1 renal): > 10 µM | TGI (SN12C renal): > 10 µM | TGI (U251 CNS): > 10 µM | TGI (SF-295 CNS): > 10 µM

CC1Cc2cc(O)c(O)cc2-c2cc(O)c(O)cc2CC1C (stereo not given)
TGI (COLO 205 colon): 32.1 µM | TGI (UACC-62 melanoma): 19.3 µM | TGI (NCI-H23 lung): 38.6 µM | TGI (K-562 leukemia): 39.5 µM | TGI (786-0 renal): 39.9 µM | TGI (IGROV1 ovarian): 47 µM | TGI (NCI-H460 lung): 42.7 µM | TGI (CAKI-1 renal): 48.3 µM | TGI (SN12C renal): 49 µM | TGI (U251 CNS): 32.6 µM | TGI (SF-295 CNS): 20.8 µM

O=C(Cc1nc2ncccc2[nH]c1=O)c1c[nH]c2ccccc12
TGI (COLO 205 colon): 31.2 µM | TGI (UACC-62 melanoma): 31.2 µM | TGI (NCI-H23 lung): 54 µM | TGI (K-562 leukemia): 63.2 µM | TGI (786-0 renal): 40.5 µM | TGI (IGROV1 ovarian): 39 µM | TGI (NCI-H460 lung): 34.4 µM | TGI (CAKI-1 renal): 31.9 µM | TGI (SN12C renal): 35.9 µM | TGI (U251 CNS): 35.1 µM | TGI (SF-295 CNS): 31.9 µM

O=C1NC(=O)/C(=C/c2ccc(S(=O)(=O)N/N=C\C(O)C(O)C(O)C(O)CO)cc2)N1 (stereo not given)
TGI (COLO 205 colon): > 100 µM | TGI (UACC-62 melanoma): > 100 µM | TGI (NCI-H23 lung): > 100 µM | TGI (K-562 leukemia): > 100 µM | TGI (786-0 renal): > 100 µM | TGI (IGROV1 ovarian): > 100 µM | TGI (NCI-H460 lung): > 100 µM | TGI (CAKI-1 renal): > 100 µM | TGI (SN12C renal): > 100 µM | TGI (U251 CNS): > 100 µM | TGI (SF-295 CNS): > 100 µM

N#Cc1c(O)cc(=O)n2c1[nH]c1ccccc12
TGI (COLO 205 colon): > 100 µM | TGI (UACC-62 melanoma): > 100 µM | TGI (NCI-H23 lung): > 100 µM | TGI (K-562 leukemia): > 100 µM | TGI (786-0 renal): > 100 µM | TGI (IGROV1 ovarian): > 100 µM | TGI (NCI-H460 lung): > 100 µM | TGI (CAKI-1 renal): > 100 µM | TGI (SN12C renal): > 100 µM | TGI (U251 CNS): > 100 µM | TGI (SF-295 CNS): > 100 µM

Oc1cccc2cc(Br)cnc12
TGI (COLO 205 colon): 97.5 µM | TGI (UACC-62 melanoma): 29.2 µM | TGI (NCI-H23 lung): > 72.8 µM | TGI (K-562 leukemia): 16.1 µM | TGI (786-0 renal): > 100 µM | TGI (IGROV1 ovarian): 51.5 µM | TGI (NCI-H460 lung): > 70.8 µM | TGI (CAKI-1 renal): > 100 µM | TGI (SN12C renal): > 100 µM | TGI (U251 CNS): > 100 µM | TGI (SF-295 CNS): > 100 µM

Cc1ccc(N=NN(C)C(=O)C(C)N)cc1 (stereo not given)
TGI (COLO 205 colon): > 100 µM | TGI (UACC-62 melanoma): > 100 µM | TGI (NCI-H23 lung): > 100 µM | TGI (K-562 leukemia): > 100 µM | TGI (786-0 renal): > 100 µM | TGI (IGROV1 ovarian): > 100 µM | TGI (NCI-H460 lung): > 100 µM | TGI (CAKI-1 renal): > 100 µM | TGI (SN12C renal): > 100 µM | TGI (U251 CNS): > 100 µM | TGI (SF-295 CNS): > 100 µM

CCN(CC)/[N+]([O-])=N/OCOC(C)=O
TGI (COLO 205 colon): > 100 µM | TGI (UACC-62 melanoma): > 100 µM | TGI (NCI-H23 lung): > 100 µM | TGI (K-562 leukemia): > 100 µM | TGI (786-0 renal): > 100 µM | TGI (IGROV1 ovarian): > 100 µM | TGI (NCI-H460 lung): > 100 µM | TGI (CAKI-1 renal): > 100 µM | TGI (SN12C renal): > 100 µM | TGI (U251 CNS): > 100 µM | TGI (SF-295 CNS): > 100 µM

NC(=O)C(=O)C(c1ccccc1)S(=O)(=O)Cc1ccccc1 (stereo not given)
TGI (COLO 205 colon): > 100 µM | TGI (UACC-62 melanoma): > 100 µM | TGI (NCI-H23 lung): > 100 µM | TGI (K-562 leukemia): > 100 µM | TGI (786-0 renal): > 100 µM | TGI (IGROV1 ovarian): > 100 µM | TGI (NCI-H460 lung): > 100 µM | TGI (CAKI-1 renal): > 100 µM | TGI (SN12C renal): > 100 µM | TGI (U251 CNS): > 100 µM | TGI (SF-295 CNS): > 100 µM

COC(=O)[C@@H](Cc1ccccc1)N1O[C@]12CCCC[C@@H]2NC(=O)OC(C)(C)C (stereo not given in full)
TGI (COLO 205 colon): 75.5 µM | TGI (UACC-62 melanoma): 48.7 µM | TGI (NCI-H23 lung): 51.8 µM | TGI (K-562 leukemia): > 100 µM | TGI (786-0 renal): 51.3 µM | TGI (IGROV1 ovarian): 27.8 µM | TGI (NCI-H460 lung): 90.6 µM | TGI (CAKI-1 renal): 90.4 µM | TGI (SN12C renal): > 100 µM | TGI (U251 CNS): 77.9 µM | TGI (SF-295 CNS): > 100 µM

COC(=O)[C@]1(c2cc3ccccc3[nH]2)CC2CN(CC(=O)N(C)OC)C1CC2(OC)OC (stereo not given in full)
TGI (COLO 205 colon): > 100 µM | TGI (UACC-62 melanoma): > 100 µM | TGI (NCI-H23 lung): > 100 µM | TGI (K-562 leukemia): 66.4 µM | TGI (786-0 renal): 57.7 µM | TGI (IGROV1 ovarian): > 100 µM | TGI (NCI-H460 lung): > 100 µM | TGI (CAKI-1 renal): 56 µM | TGI (SN12C renal): > 100 µM | TGI (U251 CNS): 30.7 µM | TGI (SF-295 CNS): > 100 µM
